We go through four molecules from patent US9504691B2, “Finafloxacin suspension compositions” (ALCON RESEARCH, LTD., priority 2012, dated 2016).

Series [1] is described as follows: Stability of finafloxacin free base polymorphs at high temperatures. It counts as physicochemical. The note with it: temperatures such as those encountered during heat sterilization; compared with forms B and C. An excerpt: A preferred form of finafloxacin for use in embodiments of the present invention is finafloxacin free base. At least three polymorphs of the finafloxacin free base have been identified (forms A, B, and C). […] The crystalline form of finafloxacin free base form A has an X-ray diffraction spectrum substantially the same as the X-ray powder diffraction spectrum shown in FIG. 1.

The subject of series [2] is Ciprofloxacin-Resistant S. aureus. The series is described as follows: In vitro antimicrobial susceptibility (MIC), Ciprofloxacin-Resistant S. aureus. The following applies: 12 isolates; for MIC50 / MIC90: unit assumed; for MIC Range: in µg/mL (unit assumed). It counts as cell-based. The procedure: (§1) A finafloxacin solution composition at pH 5.8 and 7.3 was compared to ciprofloxacin and ofloxacin compositions using standard in vitro antimicrobial susceptibility tests (M07-08 Methods for Dilution Antimicrobial Susceptibility Tests for Bacteria that Grow Aerobically; Approved Standard-Eighth Edition (January 2009, Clinical and Laboratory Standards Institute), herein incorporated by reference). Minimum inhibitory concentrations (MIC50) were determined using organisms commonly found in otic and ophthalmic infections. The MIC50 was the lowest concentration of antibiotic that prevented growth of the test organism, as determined visually by a lack of turbidity.
(§2) The results of the experiment are presented below in TABLES 1-5. At acidic pH, finafloxacin generally had greater activity against both Gram-positive and Gram-negative organisms than the fluoroquinolones ciprofloxacin and ofloxacin, both of which are used for the treatment of otic infections. Higher activity under acidic conditions is important for an otic formulation since a low pH formulation is preferred to slow bacterial and fungal growth, as well as the fact the pH environment of the external ear canal is ˜pH 6.

Series [3] relates to Ciprofloxacin-Susceptible S. aureus. The series is described as follows: In vitro antimicrobial susceptibility (MIC), Ciprofloxacin-Susceptible S. aureus. It counts as cell-based. The following applies: 8 isolates; for MIC Range: in µg/mL (unit assumed). The procedure: as §1, §2
Series [4] relates to Ciprofloxacin-Resistant P. aeruginosa. The series is described as follows: In vitro antimicrobial susceptibility (MIC), Ciprofloxacin-Resistant P. aeruginosa. It counts as cell-based. The following applies: 11 isolates; for MIC Range: in µg/mL (unit assumed). The protocol: as §1, §2
For series [5], the system named is Ciprofloxacin-Susceptible P. aeruginosa. The series is described as follows: In vitro antimicrobial susceptibility (MIC), Ciprofloxacin-Susceptible P. aeruginosa. Format: cell-based. The following applies: 14 isolates; for MIC Range: in µg/mL (unit assumed). The protocol: as §1, §2
The subject of another series is E. coli. Description: In vitro antimicrobial susceptibility (MIC), E. coli. The note with it: 10 isolates. Format: cell-based. The protocol:
as §1, §2

Series [6] in a line: Stability studies of finafloxacin formulations. It counts as physicochemical. The following applies: aqueous solutions at pH between 5 and 6. The protocol:
Exploratory stability studies were conducted to physical and chemical stability characteristics of formulations of the present invention.

The mark [7] stands for this setting: pH 5.8, in µg/mL (unit assumed).
The mark [8] stands for this setting: pH 7.3, in µg/mL (unit assumed).

≈ marks a conversion by molar mass, not a printed value. Some results are limits rather than exact numbers.

As to `N#Cc1c(N2C[C@@H]3NCCO[C@H]3C2)c(F)cc2c(=O)c(C(=O)O)cn(C3CC3)c12` [finafloxacin free base form A], the “stability of polymorph at high temperatures” value in series [1] is recorded as “most stable at high temperatures”.
By MIC50 is commonly meant an inhibitory concentration at the 50% level, which refers to growth in some studies and to a panel of isolates in others. Turning to `O=C(O)c1cn(C2CC2)c2cc(N3CCNCC3)c(F)cc2c1=O` [Ciprofloxacin, ciprofloxacin], the MIC50 came out at 128 µg/mL (≈ 386 µM) in series [2] (pH 5.8); 128 µg/mL (≈ 386 µM) in series [2] (pH 7.3); 1 µg/mL (≈ 3.02 µM) in series [3] (pH 5.8); 0.25 µg/mL (≈ 0.754 µM) in series [3] (pH 7.3); 64 µg/mL (≈ 193 µM) in series [4] (pH 5.8); 16 µg/mL (≈ 48.3 µM) in series [4] (pH 7.3). Moreover, the MIC50 in series [5] (pH 5.8) worked out at 1 µg/mL (≈ 3.02 µM); in series [5] (pH 7.3), 0.5 µg/mL (≈ 1.51 µM); in the series with E. coli (pH 5.8), 256 µg/mL (≈ 773 µM); in the series with E. coli (pH 7.3), 16 µg/mL (≈ 48.3 µM). The MIC90 in series [2] (pH 5.8) is above 256 µg/mL; in series [2] (pH 7.3), 128 µg/mL (≈ 386 µM); in series [4] (pH 5.8) it was above 512 µg/mL; in series [4] (pH 7.3), 512 µg/mL (≈ 1550 µM); in series [5] (pH 5.8), 8 µg/mL (≈ 24.1 µM); in series [5] (pH 7.3), 2 µg/mL (≈ 6.04 µM). In addition, the MIC90 in the series with E. coli (setting [7]) was above 1024; against E. coli (setting [8]), 128. Also, the “MIC Range” value in series [2] (pH 7.3) is listed as 4-128; in series [3] (pH 7.3), 0.125-1; in series [4] (pH 7.3) it was 4-512; in series [5] (pH 5.8) it was 0.125-8; in series [5] (pH 7.3), 0.063-2; against E. coli (pH 7.3), “≦0.008-128”.
As for `N#Cc1c(N2C[C@@H]3NCCO[C@H]3C2)c(F)cc2c(=O)c(C(=O)O)cn(C3CC3)c12` [Fina., 8-cyano-1-cyclopropyl-6-fluoro-7-[(4aS,7aS)-hexahydropyrrolo[3,4-b]-1,4-oxazin-6(2H)-yl]-1,4-dihydro-4-oxo-3-quinolinecarboxylic acid], the “MIC Range” value in series [2] (pH 5.8) is recorded as 0.5-8; in series [2] (pH 7.3) it was 2-16; in series [3] (pH 5.8) it was 0.008-0.125; in series [3] (pH 7.3) it was 0.016-0.25; in series [4] (pH 5.8), 2-512; in series [5] (pH 5.8), 0.25-4. Moreover, the “MIC Range” value in series [5] (pH 7.3) is 2-16; against E. coli (setting [7]), 0.0078-8; against E. coli (setting [8]) it was 0.008-64. In addition, the MIC50 in series [2] (pH 5.8) was determined as 4 µg/mL (≈ 10 µM); in series [2] (pH 7.3), 16 µg/mL (≈ 40.2 µM); in series [3] (pH 5.8), 0.016 µg/mL (≈ 0.0402 µM); in series [3] (pH 7.3), 0.125 µg/mL (≈ 0.314 µM); in series [4] (pH 5.8) it was 16 µg/mL (≈ 40.2 µM); in series [4] (pH 7.3), 512 µg/mL (≈ 1290 µM). Further, the MIC50 in series [5] (pH 5.8) is 1 µg/mL (≈ 2.51 µM); in series [5] (pH 7.3), 4 µg/mL (≈ 10 µM); against E. coli (pH 5.8) it was 4 µg/mL (≈ 10 µM); against E. coli (pH 7.3), 32 µg/mL (≈ 80.3 µM). For the same molecule, the MIC90 in series [2] (pH 5.8) was 8 µg/mL (≈ 20.1 µM); in series [2] (pH 7.3), 16 µg/mL (≈ 40.2 µM); in series [4] (pH 5.8), 512 µg/mL (≈ 1290 µM); in series [4] (pH 7.3) it was above 512 µg/mL; in series [5] (pH 5.8) it was 4 µg/mL (≈ 10 µM); in series [5] (pH 7.3), 16 µg/mL (≈ 40.2 µM). In addition, the MIC90 came out at 8 against E. coli (setting [7]) and 64 with E. coli (setting [8]). Besides, the “precipitate formation in stability studies” value in series [6] was “precipitates form”.
Take `CC1COc2c(N3CCN(C)CC3)c(F)cc3c(=O)c(C(=O)O)cn1c23` (stereo not drawn) [Ofloxacin, ofloxacin]: the MIC50 amounted to 64 µg/mL (≈ 177 µM) in series [2] (pH 5.8); 32 µg/mL (≈ 88.6 µM) in series [2] (pH 7.3); 1 µg/mL (≈ 2.77 µM) in series [3] (pH 5.8); 0.25 µg/mL (≈ 0.692 µM) in series [3] (pH 7.3); 256 µg/mL (≈ 708 µM) in series [4] (pH 5.8); 64 µg/mL (≈ 177 µM) in series [4] (pH 7.3). Moreover, the MIC50 came out at 4 µg/mL (≈ 11.1 µM) in series [5] (pH 5.8), 2 µg/mL (≈ 5.53 µM) in series [5] (pH 7.3), 512 µg/mL (≈ 1420 µM) in the series on E. coli (pH 5.8) and 16 µg/mL (≈ 44.3 µM) in the series with E. coli (pH 7.3). Besides, the MIC90 in series [2] (pH 5.8) is above 512 µg/mL; in series [2] (pH 7.3), 256 µg/mL (≈ 708 µM); in series [4] (pH 5.8) it was above 512 µg/mL; in series [4] (pH 7.3), above 512 µg/mL; in series [5] (pH 5.8), 32 µg/mL (≈ 88.6 µM); in series [5] (pH 7.3), 4 µg/mL (≈ 11.1 µM). Also, the MIC90 against E. coli (setting [7]) worked out at 512; with E. coli (setting [8]), 16. The “MIC Range” value in series [2] (pH 7.3) is 2-256; in series [3] (pH 5.8), 0.5-64; in series [3] (pH 7.3), 0.125-0.5; in series [5] (pH 5.8), 1-32; in series [5] (pH 7.3) it was 1-4; in the series on E. coli (setting [7]), 0.25-512. The “MIC Range” value against E. coli (setting [8]) is 0.016-16.
